The assay concerns the target full length MPS1 (Homo sapiens (Human), UniProt P33981). Briefly: Measurement of Inhibition of MPS1 Kinase. The format is biochemical. Particulars: full length MPS1 12.5 nM or 3 nM, H236 peptide 5 μM, ATP 10 μM, 60 min at room temperature, Caliper EZ reader II; read-out: MPS1 IC50. The protocol:
Measurement of Inhibition of MPS1 Kinase
(5 μM), ATP (10 μM), either DMSO (1% v/v) or the test compound (in the range 0.25 nM-100 μM in 1% DMSO) and assay buffer (50 mM HEPES (pH 7.0), 0.02% NaN3, 0.01% BSA, 0.1 mM Orthovandate, […], 1 μM DTT, Roche protease inhibitor). The reaction was carried out for 60 min at room temperature and stopped by the addition of buffer (10 μl) containing 20 mM EDTA, 0.05% (v/v) Brij-35, in 0.1M HEPES-buffered saline (Free acid, Sigma, UK). The plate was read on a Caliper EZ reader II (Caliper Life Sciences).
The reader provides a Software package (‘Reviewer’) which converts the peak heights into % conversion by measuring both product and substrate peak and also allows selection of control well which represent 0% and 100% inhibition, respectively. The % inhibition of the compounds is calculated relative to the means of selected control wells. IC50s are determined by testing the compounds at a range of concentrations from 0.25 nM-100 μM. The % inhibitions at each concentration are then fitted to a 4 parameter logistic fit: y=(a+((b−a)/(1+((c/x^d)))) where a=asym min, b=asym max, c=IC50 and d=hill coefficient
Chain of full length MPS1 (P33981 whole entry): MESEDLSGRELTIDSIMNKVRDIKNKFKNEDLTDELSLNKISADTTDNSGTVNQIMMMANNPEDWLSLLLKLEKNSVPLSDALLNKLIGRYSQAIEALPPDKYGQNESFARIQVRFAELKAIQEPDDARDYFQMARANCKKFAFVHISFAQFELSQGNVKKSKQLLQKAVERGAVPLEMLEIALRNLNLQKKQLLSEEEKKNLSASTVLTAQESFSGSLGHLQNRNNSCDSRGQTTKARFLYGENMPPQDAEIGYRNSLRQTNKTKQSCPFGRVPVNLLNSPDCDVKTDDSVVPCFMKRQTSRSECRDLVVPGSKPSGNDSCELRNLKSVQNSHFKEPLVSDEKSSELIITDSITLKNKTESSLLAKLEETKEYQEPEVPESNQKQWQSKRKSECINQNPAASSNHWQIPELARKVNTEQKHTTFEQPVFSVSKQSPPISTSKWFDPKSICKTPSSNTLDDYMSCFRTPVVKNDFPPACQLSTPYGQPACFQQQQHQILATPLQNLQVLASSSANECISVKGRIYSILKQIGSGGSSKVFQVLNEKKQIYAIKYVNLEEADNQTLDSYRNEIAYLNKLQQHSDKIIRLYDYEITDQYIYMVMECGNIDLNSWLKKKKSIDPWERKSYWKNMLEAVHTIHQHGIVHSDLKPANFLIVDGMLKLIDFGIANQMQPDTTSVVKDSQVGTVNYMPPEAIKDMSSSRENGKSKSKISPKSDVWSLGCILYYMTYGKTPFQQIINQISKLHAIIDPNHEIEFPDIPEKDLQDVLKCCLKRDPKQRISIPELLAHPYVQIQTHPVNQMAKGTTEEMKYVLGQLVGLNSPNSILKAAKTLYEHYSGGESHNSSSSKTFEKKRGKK
A word on the IC50: it is the concentration that gives 50% inhibition. As to `COc1cc(-c2ccnn2C)ccc1Nc1ncc2cc(C)nc(NCC(C)(C)C)c2n1` [Example 13, N2-(2-methoxy-4-(1-methyl-1H-pyrazol-5-yl)phenyl)-6-methyl-N8-neopentylpyrido[3,4-d]pyrimidine-2,8-diamine], the IC50 was 18 nM.
Take `CCOc1cc(-c2nncn2C)ccc1Nc1ncc2cc(C)nc(N3CCC3(C)C)c2n1` [Example 42, 8-(2,2-dimethylazetidin-1-yl)-N-(2-ethoxy-4-(4-methyl-4H-1,2,4-triazol-3-yl)phenyl)-6-methylpyrido[3,4-d]pyrimidin-2-amine]: the IC50 stood at 10 nM.
As for `CCOc1cc(-c2nncn2C)ccc1Nc1ncc2cc(C)nc(NC3CCOCC3)c2n1` [Example 6, N2-(2-ethoxy-4-(4-methyl-4H-1,2,4-triazol-3-yl)phenyl)-6-methyl-N8-(tetrahydro-2H-pyran-4-yl)pyrido[3,4-d]pyrimidine-2,8-diamine], the IC50 was 5 nM.
The same measure for `CCOc1cc(-c2nncn2C)ccc1Nc1ncc2cc(C)nc(N3CC(C)(C#N)C3)c2n1` [Example 3, 1-(2-((2-ethoxy-4-(4-methyl-4H-1,2,4-triazol-3-yl)phenyl)amino)-6-methylpyrido[3,4-d]pyrimidin-8-yl)-3-methylazetidine-3-carbonitrile]: 3 nM; for `CCOc1cc(-c2nncn2C)ccc1Nc1ncc2cc(C)nc(N3CC(C)(OC)C3)c2n1` [Example 30, N-(2-ethoxy-4-(4-methyl-4H-1,2,4-triazol-3-yl)phenyl)-8-(3-methoxy-3-methylazetidin-1-yl)-6-methylpyrido[3,4-d]pyrimidin-2-amine]: 2 nM.
Consider `CCOc1cc(-c2nnc(C)n2C)ccc1Nc1ncc2cc(C)nc(N3CC4(CCOCC4)C3)c2n1` [Example 23, N-(4-(4,5-dimethyl-4H-1,2,4-triazol-3-yl)-2-ethoxyphenyl)-6-methyl-8-(7-oxa-2-azaspiro[3.5]nonan-2-yl)pyrido[3,4-d]pyrimidin-2-amine], for which the IC50 is 4 nM.
As to `COc1cc(-c2ncc(C)n2C)ccc1Nc1ncc2cc(C)nc(NCC(C)(C)C)c2n1` [Example 18, N2-(4-(1,5-dimethyl-1H-imidazol-2-yl)-2-methoxyphenyl)-6-methyl-N8-neopentylpyrido[3,4-d]pyrimidine-2,8-diamine], the 50% inhibitory concentration (IC50) came out at 4 nM.
Consider `CCOc1cc(-c2nncn2C)ccc1Nc1ncc2cc(C)nc(N[C@H](C)C(C)(C)C)c2n1` [Example 53, (R)-N8-(3,3-dimethylbutan-2-yl)-N2-(2-ethoxy-4-(4-methyl-4H-1,2,4-triazol-3-yl)phenyl)-6-methylpyrido[3,4-d]pyrimidine-2,8-diamine], for which the IC50 came out at 5 nM.
For `CCOc1cc(-c2nncn2C)ccc1Nc1ncc2cc(C)nc(N[C@@H](C)C(C)(C)C)c2n1` [Example 54, (S)-N8-(3,3-dimethylbutan-2-yl)-N2-(2-ethoxy-4-(4-methyl-4H-1,2,4-triazol-3-yl)phenyl)-6-methylpyrido[3,4-d]pyrimidine-2,8-diamine], the IC50 stood at 4 nM.
Turning to `CCOc1cc(-c2nncn2C)ccc1Nc1ncc2cc(C)nc(N3CC(C)(O)C3)c2n1` [Example 9, 1-(2-((2-ethoxy-4-(4-methyl-4H-1,2,4-triazol-3-yl)phenyl)amino)-6-methylpyrido[3,4-d]pyrimidin-8-yl)-3-methylazetidin-3-ol], the IC50 was 4 nM.
Consider `CCOc1cc(-c2nncn2C)ccc1Nc1ncc2cc(C)nc(NCC3(C)CCOC3)c2n1` (stereo not drawn) [Example 2, N2-(2-ethoxy-4-(4-methyl-4H-1,2,4-triazol-3-yl)phenyl)-6-methyl-N8-((3-methyltetrahydrofuran-3-yl)methyl)pyrido[3,4-d]pyrimidine-2,8-diamine], for which the IC50 stood at 2 nM.
For `COc1cc(-c2nnc(C)n2C)ccc1Nc1ncc2cc(C)nc(NCC(C)(C)C)c2n1` [Example 21, N2-(4-(4,5-dimethyl-4H-1,2,4-triazol-3-yl)-2-methoxyphenyl)-6-methyl-N8-neopentylpyrido[3,4-d]pyrimidine-2,8-diamine] the value was 1 nM.
Regarding `CCOc1cc(-c2nncn2C)ccc1Nc1ncc2cc(C)nc(N3CC(N(C)C)C3)c2n1` [Example 51, 8-(3-(dimethylamino)azetidin-1-yl)-N-(2-ethoxy-4-(4-methyl-4H-1,2,4-triazol-3-yl)phenyl)-6-methylpyrido[3,4-d]pyrimidin-2-amine], the IC50 was 6 nM.
Take `CCOc1cc(-c2nncn2C)ccc1Nc1ncc2cc(C)nc(NCC3COC3)c2n1` [Example 57, N2-(2-ethoxy-4-(4-methyl-4H-1,2,4-triazol-3-yl)phenyl)-6-methyl-N8-(oxetan-3-ylmethyl)pyrido[3,4-d]pyrimidine-2,8-diamine]: the IC50 is 3 nM.
On to `CCOc1cc(-c2nncn2C)ccc1Nc1ncc2cc(C)nc(N3CCC4(CCOC4)C3)c2n1` (stereo not drawn) [Example 27, N-(2-ethoxy-4-(4-methyl-4H-1,2,4-triazol-3-yl)phenyl)-6-methyl-8-(2-oxa-7-azaspiro[4.4]nonan-7-yl)pyrido[3,4-d]pyrimidin-2-amine], for which the IC50 came to 4 nM.
Take `CCOc1cc(-c2nncn2C)ccc1Nc1ncc2cc(C)nc(N3CCC(C)(C#N)CC3)c2n1` [Example 28, 1-(2-((2-ethoxy-4-(4-methyl-4H-1,2,4-triazol-3-yl)phenyl)amino)-6-methylpyrido[3,4-d]pyrimidin-8-yl)-4-methylpiperidine-4-carbonitrile]: the IC50 amounted to 2 nM.
Turning to `CCOc1cc(-c2nncn2CC)ccc1Nc1ncc2cc(C)nc(N3CC4(CCOCC4)C3)c2n1` [Example 24, N-(2-ethoxy-4-(4-ethyl-4H-1,2,4-triazol-3-yl)phenyl)-6-methyl-8-(7-oxa-2-azaspiro[3.5]nonan-2-yl)pyrido[3,4-d]pyrimidin-2-amine], the IC50 came out at 2 nM.
Take `CCOc1cc(-c2nncn2C)ccc1Nc1ncc2cc(C)nc(N3CCOC(C)C3)c2n1` (racemic) [Example 48, Racemic-N-(2-ethoxy-4-(4-methyl-4H-1,2,4-triazol-3-yl)phenyl)-6-methyl-8-(2-methylmorpholino)pyrido[3,4-d]pyrimidin-2-amine]: the IC50 came out at 3 nM.
With `CCOc1cc(-c2nncn2C)ccc1Nc1ncc2cc(C)nc(N3CC4CC4C3)c2n1` (stereo not drawn) [Example 50, 8-(3-azabicyclo[3.1.0]hexan-3-yl)-N-(2-ethoxy-4-(4-methyl-4H-1,2,4-triazol-3-yl)phenyl)-6-methylpyrido[3,4-d]pyrimidin-2-amine], the IC50 was 2 nM.
Regarding `CCOc1cc(-c2nnc(C)n2C)ccc1Nc1ncc2cc(C)nc(N3CC(C)(C)C3)c2n1` [Example 22, N-(4-(4,5-dimethyl-4H-1,2,4-triazol-3-yl)-2-ethoxyphenyl)-8-(3,3-dimethylazetidin-1-yl)-6-methylpyrido[3,4-d]pyrimidin-2-amine], the IC50 was 20 nM.
Take `CCOc1cc(-c2nncn2C)ccc1Nc1ncc2cc(C)nc(N3CC(C)(OCC)C3)c2n1` [Example 61, 8-(3-ethoxy-3-methylazetidin-1-yl)-N-(2-ethoxy-4-(4-methyl-4H-1,2,4-triazol-3-yl)phenyl)-6-methylpyrido[3,4-d]pyrimidin-2-amine]: the IC50 was determined as 4 nM.
For the compound `CCOc1cc(-c2nncn2C)ccc1Nc1ncc2cc(C)nc(NCC3(OC)CCC3)c2n1` [Example 59, N2-(2-ethoxy-4-(4-methyl-4H-1,2,4-triazol-3-yl)phenyl)-N8-((1-methoxycyclobutyl)methyl)-6-methylpyrido[3,4-d]pyrimidine-2,8-diamine], the IC50 stood at 4 nM.
Turning to `CCOc1cc(-c2nncn2C)ccc1Nc1ncc2cc(C)nc(NC3CN(C)C3)c2n1` [Example 58, N2-(2-ethoxy-4-(4-methyl-4H-1,2,4-triazol-3-yl)phenyl)-6-methyl-N8-(1-methylazetidin-3-yl)pyrido[3,4-d]pyrimidine-2,8-diamine], the IC50 is 518 nM.
The same measure for `CCOc1cc(-c2nncn2CC)ccc1Nc1ncc2cc(C)nc(NCC(C)(C)C)c2n1` [Example 26, N2-(2-ethoxy-4-(4-ethyl-4H-1,2,4-triazol-3-yl)phenyl)-6-methyl-N8-neopentylpyrido[3,4-d]pyrimidine-2,8-diamine]: 6 nM.

The values above are taken from US10399974B2, “N2-phenyl-pyrido[3,4-D]pyrimidine-2, 8-diamine derivatives and their use as Mps1 inhibitors” (Cancer Research Technology Limited, priority 2014, dated 2019).
